We go through 13 molecules from patent US8198273B2, “Compounds and methods for kinase modulation, and indications therefor” (Plexxikon Inc., priority 2009, dated 2012).

The target in one data set is CYP2D6 (Homo sapiens, UniProt P10635). Kind of data set: CYP2D6 inhibition (fluorescent substrate). Type of data set: in vitro ADME. To be noted: CYP2D6, AMMC substrate; read-out: Cyp IC50 2D6. The method, then: (§1) CYP (Cytochrome P450) enzymes are the major drug metabolizing enzymes present in the liver. The inhibition of CYP enzyme activity (IC50) for each of CYP1A2, CYP2C19, CYP2C9, CYP2D6, CYP3A4(BFC) and CYP3A4(BQ) is determined for compounds, where inhibition of metabolism of a known substrate leads to a decrease in the fluorescence of the metabolized product. The fluorescence of the product is monitored as a function of compound concentration.
(§2) Compounds are dissolved in dimethyl sulfoxide to a concentration of 100 mM. These are diluted 1 μL into 82 μL of acetonitrile. […] These are then serially diluted 1:1 (160 μL to 160 μL co-factor mix) for a total of 10 points. A 10 μL aliquot of this final mixture is dispensed into 384 well assay plates and incubated for 10 minutes at 37° C. […] Assay plates are incubated at 37° C. […] The signal versus compound concentration is used to determine the IC50. The enzymes and substrates for this assay are obtained from BD Biosciences.

A further data set deals with B-Raf (Homo sapiens, UniProt P15056). Kind of data set: B-Raf biochemical kinase inhibition (AlphaScreen, biotin-MEK1 substrate). To be noted: 100 μM ATP. In short, it runs like this: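 Raf kinases phosphorylating biotin-MEK1, reaction started with ATP at 100 μM final. Compounds tested at 8 points by serial dilution from a 0.1 mM DMSO stock.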
Data set [1] has as its system COLO205 colon adenocarcinoma cells (B-Raf V600E). Kind of data set: COLO205 cell growth inhibition (ATPlite). Type of data set: cell-based. To be noted: Homo sapiens, COLO 205, 72 h; COLO205, 3 days incubation. On the procedure: Compounds are assessed in a variety of cell based assays. For example human cell lines with B-Raf V600E mutation (A375 melanoma, SKMEL3 melanoma, and COL0205 colon adenocarcinoma), as well as tumorigenic cell lines with wild-type B-RAF (SW620 colon adenocarcinoma) or with Ras mutations (SKMEL2 melanoma and IPC298 melanoma). Similar assays may be used to assess additional tumorigenic cell lines with Ras mutations, including, but not limited to, M202, M207, M243, M244, M296, S117, HCT116, HCT15, DLD1, MiaPaCa, A549, NCI-H23, NCI-H460, HOP62, MDA-MB231, Hs-578T, HL60, MOLT-4, and CCRF-CEM.
On day 1, cells are counted, then centrifuged in a conical tube for 5 minutes at 1000 rpm. The supernatant is removed and cells are re-suspended as follows: • SW620 (ATCC catalog #CCL-27): resuspend in Leibovitz's L-15 medium, 2 mM L-glutamine, 10% fetal bovine serum to 6×10^4 cells/mL. • A375 (ATCC catalog #CRL-1619): resuspend in Dulbecco's modified Eagle's medium, 4 mM L-glutamine, 4.5 g/L D-glucose, 10% fetal bovine serum to 6×10^4 cells/mL. • COL0205 (ATCC catalog #CCL-222): resuspend in RPMI 1640, 2 mM L-glutamine, 1.5 g/L sodium bicarbonate, 4.5 g/L D-glucose, 10 mM HEPES, 1.0 mM sodium pyruvate, 10% fetal bovine serum to 6×10^4 cells/mL. • SKMEL2 (ATCC catalog #HTB-68): resuspend in Minimum Eagle essential medium, 2 mM L-glutamine, 1.5 g/L sodium bicarbonate, 0.1 mM non-essential amino acids, 1.0 mM sodium pyruvate, 10% fetal bovine serum to 6×10^4 cells/mL. • SKMEL3 (ATCC catalog #HTB-69): resuspend in McCoy's 5A medium, 1.5 mM L-glutamine, 15% fetal bovine serum to 6×10^4 cells/mL. • IPC298 (DSMZ catalog #ACC 251): resuspend in RPMI 1640, 2 mM L-glutamine, 10% fetal bovine serum to 6×10^4 cells/mL.
The cells are plated, 50 μL in each well of a 96-well dish (Corning 3610) and incubated at 37° C. in 5% CO2 overnight, cells plated to a final concentration of cells as follows:
On day 2, compound at a maximum concentration of 5 mM is serially diluted 1:3 for a total of 8 point titration with DMSO as a control. A 1 μL aliquot of each dilution point and control is added to 249 μL growth media and 50 μL is added to a well containing cells, providing 10 μM compound at the maximum concentration point. The cells are incubated for 3 days at 37° C. in 5% CO2.
On day 5, ATPlite 1 step Luminescence Assay System (Perkin Elmer #6016739) is brought to room temperature along with the cell cultures. ATPlite is added 25 μL to each well, shake for 2 minutes, and the cells are incubated at room temperature for 10 minutes, then luminescence is read on Safire reader. The measured luminescence correlates directly with cell number, such that the reading as a function of compound concentration is used to determine the IC50 value.
It is understood that the results of these assays may vary as assay conditions are varied. Inhibition levels determined under the conditions described herein represent a relative activity for the compounds tested under the specific conditions employed. The cell based assays are likely to show variability due to the complexity of the system and the sensitivity thereof to any changes in the assay conditions. […] Results for compounds that are tested and show substantially no inhibition below the highest tested concentration are represented as “-” in the tables below. In some instances, the compounds were not tested in all of the assays, or assay results were not valid, as indicated by NA in the tables below.
(Cellular ATP, detected with luciferase, serves as a proxy for viable cell number.)

The next data set has as its target T1, CYP1A2 (Homo sapiens, UniProt P05177).
T1 sequence (P05177 1-516): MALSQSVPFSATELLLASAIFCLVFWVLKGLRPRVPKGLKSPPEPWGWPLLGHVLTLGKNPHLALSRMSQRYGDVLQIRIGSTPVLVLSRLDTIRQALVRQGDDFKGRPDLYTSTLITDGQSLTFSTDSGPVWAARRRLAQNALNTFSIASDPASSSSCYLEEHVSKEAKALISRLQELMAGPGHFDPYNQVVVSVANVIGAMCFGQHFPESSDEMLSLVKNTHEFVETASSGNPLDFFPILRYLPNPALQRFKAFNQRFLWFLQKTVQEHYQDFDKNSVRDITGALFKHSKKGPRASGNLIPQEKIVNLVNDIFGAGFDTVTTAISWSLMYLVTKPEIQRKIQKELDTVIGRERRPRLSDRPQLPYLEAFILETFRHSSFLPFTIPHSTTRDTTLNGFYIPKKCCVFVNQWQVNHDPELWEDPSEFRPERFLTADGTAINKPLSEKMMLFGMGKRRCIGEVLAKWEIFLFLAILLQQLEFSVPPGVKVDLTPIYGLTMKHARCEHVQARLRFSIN
In words: CYP1A2 inhibition (fluorescent substrate). The data set is classed as in vitro ADME. To be noted: CYP1A2, CEC substrate; read-out: Cyp IC50 1A2. On the procedure: as §1, §2

Sequence of B-Raf (P15056 whole entry): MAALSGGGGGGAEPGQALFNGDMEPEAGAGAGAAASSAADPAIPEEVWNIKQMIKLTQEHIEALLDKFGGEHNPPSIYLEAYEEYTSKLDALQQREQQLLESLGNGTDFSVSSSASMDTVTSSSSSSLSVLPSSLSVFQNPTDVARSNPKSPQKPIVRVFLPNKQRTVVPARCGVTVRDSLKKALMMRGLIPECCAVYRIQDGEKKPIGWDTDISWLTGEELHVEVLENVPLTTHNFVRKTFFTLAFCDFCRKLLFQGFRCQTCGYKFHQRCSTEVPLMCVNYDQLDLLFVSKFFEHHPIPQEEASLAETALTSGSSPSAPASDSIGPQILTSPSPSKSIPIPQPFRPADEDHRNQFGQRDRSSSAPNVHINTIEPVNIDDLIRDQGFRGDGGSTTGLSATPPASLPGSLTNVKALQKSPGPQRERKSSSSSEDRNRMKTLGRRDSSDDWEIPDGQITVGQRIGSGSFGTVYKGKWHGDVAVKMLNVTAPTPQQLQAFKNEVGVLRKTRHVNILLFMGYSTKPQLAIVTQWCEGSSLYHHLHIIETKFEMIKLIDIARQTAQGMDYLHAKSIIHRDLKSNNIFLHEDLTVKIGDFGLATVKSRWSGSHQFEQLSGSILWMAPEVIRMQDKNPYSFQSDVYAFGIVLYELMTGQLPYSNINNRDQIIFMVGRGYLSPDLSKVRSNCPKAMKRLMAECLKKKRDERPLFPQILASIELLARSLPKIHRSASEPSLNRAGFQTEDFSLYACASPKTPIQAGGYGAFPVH
Sequence of CYP2D6 (P10635 whole entry): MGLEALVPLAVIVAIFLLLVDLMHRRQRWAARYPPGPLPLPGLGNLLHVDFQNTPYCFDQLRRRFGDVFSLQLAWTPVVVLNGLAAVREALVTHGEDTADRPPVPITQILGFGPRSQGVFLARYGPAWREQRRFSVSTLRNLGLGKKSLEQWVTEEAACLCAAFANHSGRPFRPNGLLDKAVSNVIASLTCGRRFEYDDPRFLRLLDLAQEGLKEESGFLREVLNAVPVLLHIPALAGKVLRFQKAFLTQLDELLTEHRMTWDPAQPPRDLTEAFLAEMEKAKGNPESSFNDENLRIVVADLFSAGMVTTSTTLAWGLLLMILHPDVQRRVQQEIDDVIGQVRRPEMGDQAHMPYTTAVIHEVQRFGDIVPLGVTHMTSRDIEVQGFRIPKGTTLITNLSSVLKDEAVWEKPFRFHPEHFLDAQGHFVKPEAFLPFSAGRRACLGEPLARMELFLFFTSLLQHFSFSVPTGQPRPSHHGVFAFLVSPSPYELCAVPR

The term IC50 denotes the midpoint of a concentration-inhibition curve. As for `O=C(c1c(F)ccc(NS(=O)(=O)c2cc(F)ccc2F)c1F)c1c[nH]c2ncc(Cl)cc12` [P-2002, N-[3-(5-Chloro-1H-pyrrolo[2,3-b]pyridine-3-carbonyl)-2,4-difluoro-phenyl]-2,5-difluoro-benzenesulfonamide], the IC50 at CYP2D6 was over 10 µM; on B-Raf, under 0.01 µM; in data set [1] it was under 1 µM; on CYP1A2, over 10 µM.
On to `O=C(c1c(F)ccc(NS(=O)(=O)c2c(F)cccc2F)c1F)c1c[nH]c2ncc(Cl)cc12` [P-2003, N-[3-(5-Chloro-1H-pyrrolo[2,3-b]pyridine-3-carbonyl)-2,4-difluoro-phenyl]-2,6-difluoro-benzenesulfonamide], for which the IC50 was over 10 µM at CYP2D6, under 0.1 µM on B-Raf, under 5 µM in data set [1] and over 10 µM on CYP1A2.
In the case of `COc1cnc2[nH]cc(C(=O)c3c(F)ccc(NS(=O)(=O)c4ccccc4F)c3F)c2c1` [P-2009, N-[2,4-Difluoro-3-(5-methoxy-1H-pyrrolo[2,3-b]pyridine-3-carbonyl)-phenyl]-2-fluoro-benzenesulfonamide], the IC50 at CYP2D6 is over 10 µM; against B-Raf, under 0.1 µM; in data set [1], under 5 µM; at CYP1A2, over 10 µM.
Regarding `COc1cnc2[nH]cc(C(=O)c3c(F)ccc(NS(=O)(=O)c4cc(F)ccc4F)c3F)c2c1` [P-2010, N-[2,4-Difluoro-3-(5-methoxy-1H-pyrrolo[2,3-b]pyridine-3-carbonyl)-phenyl]-2,5-difluoro-benzenesulfonamide], the IC50 was over 10 µM on CYP2D6, under 0.1 µM against B-Raf, under 1 µM in data set [1] and over 10 µM on CYP1A2.
Consider `N#Cc1cnc2[nH]cc(C(=O)c3c(F)ccc(NS(=O)(=O)c4ccccc4F)c3F)c2c1` [P-2011, N-[3-(5-Cyano-1H-pyrrolo[2,3-b]pyridine-3-carbonyl)-2,4-difluoro-phenyl]-2-fluoro-benzenesulfonamide], for which the IC50 is over 10 µM at CYP2D6, under 0.1 µM at B-Raf, under 1 µM in data set [1] and over 10 µM at CYP1A2.
In the case of `Cc1cnc2[nH]cc(C(=O)c3c(F)ccc(NS(=O)(=O)c4ccccc4F)c3F)c2c1` [P-2014, N-[2,4-Difluoro-3-(5-methyl-1H-pyrrolo[2,3-b]pyridine-3-carbonyl)-phenyl]-2-fluoro-benzenesulfonamide], the IC50 is over 10 µM at CYP2D6, under 0.1 µM against B-Raf, under 5 µM in data set [1] and over 10 µM at CYP1A2.
Turning to `Cc1cnc2[nH]cc(C(=O)c3c(F)ccc(NS(=O)(=O)c4cc(F)ccc4F)c3F)c2c1` [P-2015, N-[2,4-Difluoro-3-(5-methyl-1H-pyrrolo[2,3-b]pyridine-3-carbonyl)-phenyl]-2,5-difluoro-benzenesulfonamide], the IC50 is over 10 µM at CYP2D6, under 0.1 µM against B-Raf, under 1 µM in data set [1] and over 10 µM on CYP1A2.
For the molecule `Cc1cnc2[nH]cc(C(=O)c3c(F)ccc(NS(=O)(=O)c4cccc(F)c4)c3F)c2c1` [P-2016, N-[2,4-Difluoro-3-(5-methyl-1H-pyrrolo[2,3-b]pyridine-3-carbonyl)-phenyl]-3-fluoro-benzenesulfonamide], the IC50 was over 10 µM at CYP2D6, under 0.1 µM on B-Raf, under 5 µM in data set [1] and over 10 µM on CYP1A2.
Consider `O=C(c1c(F)ccc(NS(=O)(=O)c2ccccc2F)c1F)c1c[nH]c2nccc(Cl)c12` [P-2017, N-[3-(4-Chloro-1H-pyrrolo[2,3-b]pyridine-3-carbonyl)-2,4-difluoro-phenyl]-2-fluoro-benzenesulfonamide], for which the IC50 on CYP2D6 is over 10 µM; at B-Raf, under 0.1 µM; in data set [1], under 5 µM; at CYP1A2, over 10 µM.
`O=C(c1c(F)ccc(NS(=O)(=O)c2cc(F)ccc2F)c1F)c1c[nH]c2nccc(Cl)c12` [P-2018, N-[3-(4-Chloro-1H-pyrrolo[2,3-b]pyridine-3-carbonyl)-2,4-difluoro-phenyl]-2,5-difluoro-benzenesulfonamide]: the IC50 at CYP2D6 is over 10 µM; at B-Raf it was under 0.01 µM; in data set [1], under 5 µM; on CYP1A2 it was over 10 µM.
Take `O=C(c1c(F)ccc(NS(=O)(=O)c2cccc(F)c2)c1F)c1c[nH]c2nccc(Cl)c12` [P-2019, N-[3-(4-Chloro-1H-pyrrolo[2,3-b]pyridine-3-carbonyl)-2,4-difluoro-phenyl]-3-fluoro-benzenesulfonamide]: the IC50 was over 10 µM on CYP2D6, under 0.01 µM against B-Raf, under 5 µM in data set [1] and over 10 µM at CYP1A2.
With `COc1ccnc2[nH]cc(C(=O)c3c(F)ccc(NS(=O)(=O)c4ccccc4F)c3F)c12` [P-2021, N-[2,4-Difluoro-3-(4-methoxy-1H-pyrrolo[2,3-b]pyridine-3-carbonyl)-phenyl]-2-fluoro-benzenesulfonamide], the IC50 was over 10 µM at CYP2D6, under 0.1 µM against B-Raf, under 5 µM in data set [1] and over 10 µM on CYP1A2.
`COc1ccnc2[nH]cc(C(=O)c3c(F)ccc(NS(=O)(=O)c4cc(F)ccc4F)c3F)c12` [P-2022, N-[2,4-Difluoro-3-(4-methoxy-1H-pyrrolo[2,3-b]pyridine-3-carbonyl)-phenyl]-2,5-difluoro-benzenesulfonamide]: the IC50 on CYP2D6 is over 10 µM; against B-Raf, under 0.1 µM; in data set [1], under 5 µM; on CYP1A2, over 10 µM.
